From patent publication US6608071B2, “Isoquinoline derivatives with angiogenesis inhibiting activity” (Novartis AG, priority 1998, dated 2003)

Columns and labels:
[1] = biological target: T1, Flt-1 VEGF receptor tyrosine kinase (Homo sapiens, UniProt P17948); assay: Test for activity against Flt-1 VEGF receptor tyrosine kinase activity; assay type: biochemical; conditions: kinase domain of Flt-1, poly(Glu,Tyr) 4:1, 8 μM [33P]-ATP, 15 minutes at room temperature
T1 construct: 10 ng of the kinase domain of Flt-1
T1 sequence (P17948 827-1158 limits assumed): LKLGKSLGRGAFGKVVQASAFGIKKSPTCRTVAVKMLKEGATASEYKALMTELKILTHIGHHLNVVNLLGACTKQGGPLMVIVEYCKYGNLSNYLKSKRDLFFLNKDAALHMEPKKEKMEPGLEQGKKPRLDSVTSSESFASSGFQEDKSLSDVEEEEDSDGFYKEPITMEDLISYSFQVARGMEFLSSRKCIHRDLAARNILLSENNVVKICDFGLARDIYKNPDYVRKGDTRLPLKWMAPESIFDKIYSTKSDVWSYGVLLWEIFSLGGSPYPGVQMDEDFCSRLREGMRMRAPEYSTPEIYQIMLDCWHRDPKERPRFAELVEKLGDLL
Experimental: Test for activity against VEGF receptor tyrosine kinase activity: The test is carried out using Flt-1 VEGF receptor tyrosine kinase. In detail, the procedure is as follows: 30 μl of kinase solution (10 ng of the kinase domain of Flt-1, Shibuya et al., Oncogene 5, 519-524 (1990)) in 20 mM Tris-HCl pH 7.6, 3 mM manganese dichloride (MnCl2), 3 mM magnesium chloride (MgCl2) and 3 μg/ml of poly(Glu,Tyr) 4:1 (Sigma, Buchs, Switzerland), 8 μM [^33P]-ATP (0.2 μCi/batch), 1% dimethyl sulfoxide and from 0 to 50 μM of the test compound are incubated together for 15 minutes at room temperature. The reaction is then terminated by addition of 10 μl of 0.25M ethylenediamine tetraacetate (EDTA) pH 7. An aliquot of 20 μl is connected to a vacuum using a multichannel dispenser (LAB SYSTEMS, USA) on a PVDF (=polyvinyl difluoride) Immobilon P membrane (Millipore, USA), which is incorporated in a Millipore Microtiter filter manifold. When the liquid has been removed completely, the membrane is incubated 4 times in succession, in each case for 10 minutes, with shaking, in a washing bath containing 0.5% phosphoric acid (H3PO4), and is then mounted in a Hewlett Packard TopCount Manifold and, after addition of 10 μl of Microscint® (β-scintillation counter fluid; Packard, USA), the radioactivity is, measured. IC50 values are determined by linear regression analysis of the percentage values for the inhibition of each compound at three concentrations (generally 0.01, 0.1 and 1 μM). The inhibition values (IC50 with half-maximum inhibition as compared with a control without inhibitor of formula I) found are especially in the range of from 10 nmol/liter to 100 μmol/liter, more especially from 20 to 2000 nmol/liter.
The test is carried out using Fit-1 VEGF receptor tyrosine kinase, as described above. The IC50 values obtained are shown below, insofar as they were calculated accurately: […]

SMILES | IC50 [1] | melting point
Cc1cc(C)cc(Nc2ncc(Cc3ccncc3)c3ccccc23)c1 [Example 1, 1-(3,5-Dimethylanilino)-4-[(pyridin-4-yl)-methyl]-isoquinoline] | 802 nM | 156 to 158 °C
Clc1ccc(Nc2ncc(Cc3ccncc3)c3ccccc23)cc1 [Example 2] | 346 nM | –
FC(F)(F)c1cc(Br)cc(Nc2ncc(Cc3ccncc3)c3ccccc23)c1 [Example 3] | > 1000 nM | –

Further lines, results first:

IC50 [1] | melting point | SMILES
> 1000 nM | – | FC(F)(F)c1cc(Nc2ncc(Cc3ccncc3)c3ccccc23)ccc1Cl [Example 4]
344 nM | – | Cc1cccc(Nc2ncc(Cc3ccncc3)c3ccccc23)c1 [Example 5]
– | 141 to 142 °C | Clc1cccc(CNc2ncc(Cc3ccncc3)c3ccccc23)c1 [Example 132, 1-(3-Chlorobenzylamino)-4-[(pyridin-4-yl)-methyl]-isoquinoline]
